Laboratory results published in ChEMBL document CHEMBL4699506, “Polyhalogenation of Isoflavonoids by the Termite-Associated Actinomadura sp. RB99” (2020).

Experiments:
Type in all cases: functional
[1] = test system: Escherichia coli; test: Antibacterial activity against Escherichia coli assessed as reduction in bacterial growth after 24 hrs by two-fold serial dilution method
[2] = test system: Staphylococcus epidermidis; test: Antibacterial activity against Staphylococcus epidermidis assessed as reduction in bacterial growth after 24 hrs by two-fold serial dilution method
[3] = test system: Candida albicans; test: Antifungal activity against Candida albicans assessed as reduction in […] by two-fold serial dilution method
[4] = test system: Helicobacter pylori; test: Antibacterial activity against Helicobacter pylori 51 assessed as reduction in microbial growth after 24 hrs by two-fold serial dilution method

Structure (SMILES)	MIC [1] [µg/mL]	MIC [2] [µg/mL]	MIC [3] [µg/mL]	MIC [4] [µg/mL]	MIC50 [4] [µg/mL]
O=c1c(-c2cc(Cl)c(O)c(Cl)c2)coc2cc(O)ccc12	> 50	> 50	> 50		
O=c1c(-c2ccc(O)cc2)coc2c(Cl)c(O)c(O)c(Cl)c12	> 50	> 50	> 50		
O=c1c(-c2cc(Cl)c(O)c(Cl)c2)coc2c(Cl)c(O)c(Cl)c(O)c12	> 50	> 50	> 50		
O=c1c(-c2ccc(O)cc2)coc2c(Cl)c(O)c(Cl)c(O)c12	> 50	> 50	> 50		
O=c1c(-c2cc(Br)c(O)c(Br)c2)coc2c(Br)c(O)c(Br)c(O)c12				58.1	14.5
O=c1c(-c2cc(Br)c(O)c(Br)c2)coc2c(Br)c(O)ccc12				35.1	6.9
Cc1ncc([N+](=O)[O-])n1CCO [METRONIDAZOLE]				4.3	11.8

Second part, the compound after the results:

MIC [1] [µg/mL]	MIC [2] [µg/mL]	MIC [3] [µg/mL]	MIC [4] [µg/mL]	MIC50 [4] [µg/mL]	Structure (SMILES)
> 50	> 50	> 50			COc1cc2occ(-c3cc(Cl)c(O)c(Cl)c3)c(=O)c2cc1OC
> 50	> 50	> 50			COc1cc2c(=O)c(-c3cc(Cl)c(O)c(Cl)c3)coc2c(Cl)c1O
> 50	> 50	> 50			COc1cc2c(=O)c(-c3cc(Cl)c(O)c(Cl)c3)coc2cc1O
> 50	> 50	> 50			O=c1c(-c2cc(Cl)c(O)c(Cl)c2)coc2c(Cl)c(O)c(Cl)cc12
